Patent publication US20240132484A1, “BROAD SPECTRUM ANTIVIRAL COMPOUNDS TARGETING THE SKI COMPLEX” (priority 2020, published 2024)
Values joined by “and” are separate entries in the source; they are usually repeats but may differ in a detail not shown here. Identical values can stand only once. Like-named read-outs stand apart in the source and are kept apart here.

Columns and labels:
cells (nuclei count) = conditions: for Toxicity Data: Average, Mean: n 9; for Relative cell count to DMSO controls, Average 1 μM / Relative cell count to DMSO controls, Average 5 μM / Relative cell count to DMSO controls, Average 10 μM / Relative cell count to DMSO controls, Average 25 μM / Relative cell count to DMSO controls, Average 50 μM: toxicity data, 100=DMSO control; for Relative cell count to DMSO controls, Average (for correlation analysis): average value over the 5 tested concentrations (1 to 50 uM)
SARS2 = assay type: cell-based, SARS-CoV-2; conditions: for Infection Data: Percentage Infection Relative to Appropriate DMSO Control: avg background subtraction, replicate wells; for Infection Data: Average, Mean: average of Exp 1-3 (SMW475, SMW477, SMW478), n 9; for Percentage Inhibition Average 1 μM / Screening data (Relative infection to DMSO controls) Average 1 μM: SARS2, 1 μM; for Screening data (Relative infection to DMSO controls) Average 1 μM / Screening data (Relative infection to DMSO controls) Average 5 μM / Screening data (Relative infection to DMSO controls) Average 10 μM / Screening data (Relative infection to DMSO controls) Average 25 μM / Screening data (Relative infection to DMSO controls) Average 50 μM / Average (relative infection to DMSO over the 5 tested concentrations): 100=DMSO control; for Percentage Inhibition Average 5 μM / Screening data (Relative infection to DMSO controls) Average 5 μM: SARS2, 5 μM; for Percentage Inhibition Average 10 μM / Screening data (Relative infection to DMSO controls) Average 10 μM: SARS2, 10 μM; for Percentage Inhibition Average 25 μM / Screening data (Relative infection to DMSO controls) Average 25 μM: SARS2, 25 μM; for Percentage Inhibition Average 50 μM / Screening data (Relative infection to DMSO controls) Average 50 μM: SARS2, 50 μM; for Average (relative infection to DMSO over the 5 tested concentrations): SARS2, average over 1 to 50 uM

Cc1csc(CN(CCN(C)C)Cc2ccco2)c1 [SILCS17]
Toxicity Data: Average, Mean (cells (nuclei count); 1 uM, average of Exp 1-3 (SMW475, SMW477, SMW478)): 96.29% | Relative cell count to DMSO controls, Average 1 μM (cells (nuclei count)): 96.29 | Toxicity Data: Average, Mean (cells (nuclei count); 5 uM, average of Exp 1-3 (SMW475, SMW477, SMW478)): 89.17% | Relative cell count to DMSO controls, Average 5 μM (cells (nuclei count)): 89.17 | Toxicity Data: Average, Mean (cells (nuclei count); 10 uM, average of Exp 1-3 (SMW475, SMW477, SMW478)): 88.87% | Relative cell count to DMSO controls, Average 10 μM (cells (nuclei count)): 88.87 | Toxicity Data: Average, Mean (cells (nuclei count); 25 uM, average of Exp 1-3 (SMW475, SMW477, SMW478)): 75.47% | Relative cell count to DMSO controls, Average 25 μM (cells (nuclei count)): 75.47 | Toxicity Data: Average, Mean (cells (nuclei count); 50 uM, average of Exp 1-3 (SMW475, SMW477, SMW478)): 53.52% | Relative cell count to DMSO controls, Average 50 μM (cells (nuclei count)): 53.52 | Relative cell count to DMSO controls, Average (for correlation analysis) (cells (nuclei count)): 80.66 | Infection Data: Percentage Infection Relative to Appropriate DMSO Control (SARS2; 1 uM, Exp 1 (SMW475)): 78.55% and 85.49% and 89.26% | Infection Data: Percentage Infection Relative to Appropriate DMSO Control (SARS2; 1 uM, Exp 2 (SMW477)): 101.46% and 156.03% and 155.63% | Infection Data: Percentage Infection Relative to Appropriate DMSO Control (SARS2; 1 uM, Exp 3 (SMW478)): 90.81% and 93.25% and 105.34% | Infection Data: Average, Mean (SARS2; 1 uM): 106.20% | Infection Data: Percentage Infection Relative to Appropriate DMSO Control (SARS2; 5 uM, Exp 1 (SMW475)): 86.61% and 84.44% and 77.45% | Infection Data: Percentage Infection Relative to Appropriate DMSO Control (SARS2; 5 uM, Exp 2 (SMW477)): 142.87% and 172.05% and 157.06% | Infection Data: Percentage Infection Relative to Appropriate DMSO Control (SARS2; 5 uM, Exp 3 (SMW478)): 97.85% and 101.86% and 101.30% | Infection Data: Average, Mean (SARS2; 5 uM): 113.50% | Infection Data: Percentage Infection Relative to Appropriate DMSO Control (SARS2; 10 uM, Exp 1 (SMW475)): 75.56% and 86.80% and 108.19% | Infection Data: Percentage Infection Relative to Appropriate DMSO Control (SARS2; 10 uM, Exp 2 (SMW477)): 130.54% and 160.59% and 172.84% | Infection Data: Percentage Infection Relative to Appropriate DMSO Control (SARS2; 10 uM, Exp 3 (SMW478)): 90.38% and 97.98% and 103.28% | Infection Data: Average, Mean (SARS2; 10 uM): 114.02% | Infection Data: Percentage Infection Relative to Appropriate DMSO Control (SARS2; 25 uM, Exp 1 (SMW475)): 41.54% and 68.32% and 68.68% | Infection Data: Percentage Infection Relative to Appropriate DMSO Control (SARS2; 25 uM, Exp 2 (SMW477)): 38.35% and 67.19% and 82.12% | Infection Data: Percentage Infection Relative to Appropriate DMSO Control (SARS2; 25 uM, Exp 3 (SMW478)): 68.44% and 109.27% and 278.92% | Infection Data: Average, Mean (SARS2; 25 uM): 91.43% | Infection Data: Percentage Infection Relative to Appropriate DMSO Control (SARS2; 50 uM, Exp 1 (SMW475)): 15.74% and 49.90% and 30.92% | Infection Data: Percentage Infection Relative to Appropriate DMSO Control (SARS2; 50 uM, Exp 2 (SMW477)): 11.74% and 25.42% and 30.96% | Infection Data: Percentage Infection Relative to Appropriate DMSO Control (SARS2; 50 uM, Exp 3 (SMW478)): 20.44% and 62.60% and 81.13% | Infection Data: Average, Mean (SARS2; 50 uM): 36.54% | Percentage Inhibition Average 1 μM (SARS2): −6.20% | Screening data (Relative infection to DMSO controls) Average 1 μM (SARS2): 106.20 | Percentage Inhibition Average 5 μM (SARS2): −13.50% | Screening data (Relative infection to DMSO controls) Average 5 μM (SARS2): 113.50 | Percentage Inhibition Average 10 μM (SARS2): −14.02% | Screening data (Relative infection to DMSO controls) Average 10 μM (SARS2): 114.02 | Percentage Inhibition Average 25 μM (SARS2): 8.57% | Screening data (Relative infection to DMSO controls) Average 25 μM (SARS2): 91.43 | Percentage Inhibition Average 50 μM (SARS2): 63.46% | Screening data (Relative infection to DMSO controls) Average 50 μM (SARS2): 36.54 | Average (relative infection to DMSO over the 5 tested concentrations) (SARS2): 92.34

CC1=C(C(=O)NCc2ccccc2)C(c2scc3c2OCCO3)NC(=O)N1 (stereo not drawn) [SILCS66]
Relative cell count to DMSO controls, Average 1 μM (cells (nuclei count)): 98.81 | Relative cell count to DMSO controls, Average 5 μM (cells (nuclei count)): 109.01 | Relative cell count to DMSO controls, Average 10 μM (cells (nuclei count)): 93.98 | Relative cell count to DMSO controls, Average 25 μM (cells (nuclei count)): 90.79 | Relative cell count to DMSO controls, Average 50 μM (cells (nuclei count)): 84.65 | Relative cell count to DMSO controls, Average (for correlation analysis) (cells (nuclei count)): 95.45 | Percentage Inhibition Average 1 μM (SARS2): −3.65% | Screening data (Relative infection to DMSO controls) Average 1 μM (SARS2): 103.65 | Percentage Inhibition Average 5 μM (SARS2): 38.92% | Screening data (Relative infection to DMSO controls) Average 5 μM (SARS2): 61.08 | Percentage Inhibition Average 10 μM (SARS2): −7.16% | Screening data (Relative infection to DMSO controls) Average 10 μM (SARS2): 107.16 | Percentage Inhibition Average 25 μM (SARS2): −12.41% | Screening data (Relative infection to DMSO controls) Average 25 μM (SARS2): 112.41 | Percentage Inhibition Average 50 μM (SARS2): −28.18% | Screening data (Relative infection to DMSO controls) Average 50 μM (SARS2): 128.18 | Average (relative infection to DMSO over the 5 tested concentrations) (SARS2): 102.50

CN(C)CCN(Cc1ccsc1)Cc1ccco1 [SILCS12]
Toxicity Data: Average, Mean (cells (nuclei count); 1 uM, average of Exp 1-3 (SMW454, SMW466, SMW480)): 103.58% | Relative cell count to DMSO controls, Average 1 μM (cells (nuclei count)): 103.58 | Toxicity Data: Average, Mean (cells (nuclei count); 5 uM, average of Exp 1-3 (SMW454, SMW466, SMW480)): 102.70% | Relative cell count to DMSO controls, Average 5 μM (cells (nuclei count)): 102.7 | Toxicity Data: Average, Mean (cells (nuclei count); 10 uM, average of Exp 1-3 (SMW454, SMW466, SMW480)): 96.10% | Relative cell count to DMSO controls, Average 10 μM (cells (nuclei count)): 96.1 | Toxicity Data: Average, Mean (cells (nuclei count); 25 uM, average of Exp 1-3 (SMW454, SMW466, SMW480)): 95.34% | Relative cell count to DMSO controls, Average 25 μM (cells (nuclei count)): 95.34 | Toxicity Data: Average, Mean (cells (nuclei count); 50 uM, average of Exp 1-3 (SMW454, SMW466, SMW480)): 66.97% | Relative cell count to DMSO controls, Average 50 μM (cells (nuclei count)): 66.97 | Relative cell count to DMSO controls, Average (for correlation analysis) (cells (nuclei count)): 92.94 | Percentage Infection Relative to DMSO Control, Average, Mean (SARS2): 76.66% and 135.12% and 110.30% and 109.01% and 120.43% | Percentage Inhibition Average 1 μM (SARS2): −20.43% | Screening data (Relative infection to DMSO controls) Average 1 μM (SARS2): 120.43 | Percentage Inhibition Average 5 μM (SARS2): −9.01% | Screening data (Relative infection to DMSO controls) Average 5 μM (SARS2): 109.01 | Percentage Inhibition Average 10 μM (SARS2): −10.30% | Screening data (Relative infection to DMSO controls) Average 10 μM (SARS2): 110.30 | Percentage Inhibition Average 25 μM (SARS2): −35.12% | Screening data (Relative infection to DMSO controls) Average 25 μM (SARS2): 135.12 | Percentage Inhibition Average 50 μM (SARS2): 23.34% | Screening data (Relative infection to DMSO controls) Average 50 μM (SARS2): 76.66 | Average (relative infection to DMSO over the 5 tested concentrations) (SARS2): 110.30

COc1ccc(-c2[nH]ncc2C(=O)NCC2CCC2)cc1OC [SILCS54]
Relative cell count to DMSO controls, Average 1 μM (cells (nuclei count)): 100.58 | Relative cell count to DMSO controls, Average 5 μM (cells (nuclei count)): 101.65 | Relative cell count to DMSO controls, Average 10 μM (cells (nuclei count)): 100.51 | Relative cell count to DMSO controls, Average 25 μM (cells (nuclei count)): 99.71 | Relative cell count to DMSO controls, Average 50 μM (cells (nuclei count)): 88.29 | Relative cell count to DMSO controls, Average (for correlation analysis) (cells (nuclei count)): 98.15 | Percentage Inhibition Average 1 μM (SARS2): 0.61% | Screening data (Relative infection to DMSO controls) Average 1 μM (SARS2): 99.39 | Percentage Inhibition Average 5 μM (SARS2): 7.12% | Screening data (Relative infection to DMSO controls) Average 5 μM (SARS2): 92.88 | Percentage Inhibition Average 10 μM (SARS2): 10.70% | Screening data (Relative infection to DMSO controls) Average 10 μM (SARS2): 89.30 | Percentage Inhibition Average 25 μM (SARS2): −5.10% | Screening data (Relative infection to DMSO controls) Average 25 μM (SARS2): 105.10 | Percentage Inhibition Average 50 μM (SARS2): −13.08% | Screening data (Relative infection to DMSO controls) Average 50 μM (SARS2): 113.08 | Average (relative infection to DMSO over the 5 tested concentrations) (SARS2): 99.95
